The values that follow come from US4803203A, “Phenyl and heterocyclic piperazinyl alkoxy-benzheterocyclic compounds as antipsychotic agents” (Warner-Lambert Company, priority 1987, dated 1989).

Structures are written as SMILES. pIC50: −log10 of the molar value. Where two headings read alike, the source gives them in different places.

Experiment [1] addresses T1, dopamine receptors (striatal membranes) (Rattus norvegicus, UniProt P61169).
T1 construct: striatal membranes prepared from Long-Evans hooded rats; from tissue; host or cells: corpus striatum of Long-Evans hooded rats (membrane homogenate)
Description: [^3 H]Haloperidol binding assay. Also on record: species or system rat (Long-Evans hooded rats). As to conditions: 0.6 nM [^3 H]-haloperidol, pH 7.6, 25° C., 40 minutes. The procedure: The antipsychotic activity of representative compounds of the invention was also established by the [^3 H]haloperidol binding assay method which is described in Mol. Pharmacol. 12, 800 (1976) and reports excellent correlation between the amount of binding and clinical potency.
[^3 H]Haloperidol Binding Assay. The relative affinities of compounds for dopamine receptors were evaluated on the basis of their ability to displace [^3 H]-haloperidol from striatal membranes prepared from Long-Evans hooded rats. Rats were decapitated; the brains were removed, and the corpus striata were dissected. The corpus striata were homogenized in 40 volumes of […] Tris buffer (pH 7.6) and centrifuged. Pellets were rehomogenized in 50 volumes of the same buffer and used for the binding assay. Incubations were carried out in 10 ml of […] Tris-HCl buffer (pH 7.6) containing 2 mg/ml of original wet tissue weight of homogenate, 100 μl of test agent or solvent, and 0.6 nM of [^3 H]-haloperidol. Nonspecific binding was determined in the presence of 0.1 μM (+)-butaclamol. Samples were incubated in reciprocating water bath at 25° C. for 40 minutes. Incubation was terminated by rapid filtration under reduced pressure through glass fiber filters (Whatman GF/B). The filters were rinsed three times with 10 ml of Tris-HCl buffer. The filters were placed in 10 ml of scintillation cocktail (Beckman Ready-Solv HP) and shaken for one hour. Radioactivity retained on the filter was determined by liquid scintillation spectrophotometry. IC50 s when determined were calculated from a nonlinear computer curve, fit on the data from […], each done in triplicate.

For experiment [2], the system named is spontaneous locomotion (Swiss-Webster male mice). Description: Inhibition of locomotor activity-screen fall-off test. Type of experiment: in vivo, mouse (Swiss-Webster male mice). The following applies: Mus musculus, ip, 1 h, intraperitoneal, one hour prior to testing, locomotion accumulated for one hour. The method, then:
ANIMALS: Nine unfasted Swiss-Webster male mice (Buckberg Labs) weighing 20-30 g are equally divided into three groups for each drug dose to be tested. That is, data for each dose level was generated by three separate groups of three mice each.
DRUGS: A minimum of three dose levels (10, 30, and 100 mg/kg) are tested for each drug. Treatments are administered intraperitoneally one hour prior to testing. All dosages are calculated as parent compound. Compounds are dissolved or suspended in 0.2% methocel. Control animals are injected with methocel.
TESTING: A two-part testing procedure is started one hour postinjection. First, the screen test is performed (see Pharmac Biochem Behav 6, 351-353, 1977). Briefly, this test consists of placing mice on individual wire screens which are then rotated 180° at the start of a 60-second observation period. The number of mice falling off the inverted screen is recorded.
Immediately following the screen test, the final phase of testing is initiated by placing each group of three mice in one actophotometer (Life Sciences, 22, 1067-1076, 1978). The actophotometer consists of a cylindrical chamber whose center is occupied by another cylinder which contains the illumination for six photocells located on the perimeter of the chamber. Six light-beam interruptions equal one count. Locomotor activity is recorded by computer at ten-minute intervals for 60 minutes.
DATA: The data obtained from the screen test are expressed as percent of mice falling off the screen. Data derived from locomotor activity of drug-treated mice are compared to the activity of vehicle-treated animals and are expressed as percent inhibition of spontaneous locomotion. All percentages reported for inhibition of locomotion are based upon data accumulated for one hour. Both phases of testing are graded: A=60-100%; C=31-59%; and N=0-30%. An overall dose rating is obtained by the following criteria.
All other combinations = N
Utilizing this procedure, an overall dose rating of A was obtained for the noted compounds at the indicated dose, ED50 s, as reported in Table 1.

Where [3] appears, read: rat striatal membranes, read-out: ^3 H-Haloperidol Binding IC50.
[4] abbreviates: ^3 H-Haloperidol Binding IC50, rat striatal membranes.

T1 sequence (P61169 whole entry): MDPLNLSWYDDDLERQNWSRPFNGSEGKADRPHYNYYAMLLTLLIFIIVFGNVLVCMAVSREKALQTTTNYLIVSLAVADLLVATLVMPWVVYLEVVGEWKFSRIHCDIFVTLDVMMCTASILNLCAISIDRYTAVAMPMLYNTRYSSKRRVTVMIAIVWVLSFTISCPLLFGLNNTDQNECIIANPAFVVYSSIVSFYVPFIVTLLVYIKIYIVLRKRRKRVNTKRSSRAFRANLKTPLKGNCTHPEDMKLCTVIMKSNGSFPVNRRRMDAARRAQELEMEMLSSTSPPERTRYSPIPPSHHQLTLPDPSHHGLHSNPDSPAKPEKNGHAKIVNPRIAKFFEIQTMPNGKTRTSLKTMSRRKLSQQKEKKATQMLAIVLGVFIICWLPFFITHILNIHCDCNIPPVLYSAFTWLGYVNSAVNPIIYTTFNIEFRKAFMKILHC

Consider `c1ccc(N2CCN(CCCOc3ccc4ncccc4c3)CC2)cc1` [Example 2K, 6-[3-(4-phenyl-1-piperazinyl)propoxy]-quinoline], for which, in experiment [1] (setting [3]), the negative-log IC50 (pIC50) was 7.05. In addition, in experiment [2], the 50% effective dose (ED50) was found to be 0.5 mg/kg.
Regarding `C1=C(c2ccccc2)CCN(CCCCOc2ccc3[nH]ccc3c2)C1` [Example 2H, 5-[4-(3,6-dihydro-4-phenyl-1(2H)-pyridinyl)butoxy]-1H-indole], the pIC50 in experiment [1] (setting [4]) is 8.00. The ED50 in experiment [2] was 0.5 mg/kg.
The like results for `C1=C(c2ccccc2)CCN(CCCOc2cccc3[nH]ccc23)C1` [Example 2F, 4-[3-(3,6-dihydro-4-phenyl-1(2H)-pyridinyl)propoxy]-1H-indole] were, in that order, 7.40 and 2.5 mg/kg.
With `c1cnc(N2CCN(CCCCOc3cccc4ncccc34)CC2)nc1` [Example 2N, 5-[4-[4-(2-pyrimidinyl)-1-piperazinyl]butoxy]quinoline], the negative logarithm of the IC50 (pIC50) in experiment [1] (setting [3]) was 6.74.
As for `CC1(C)CC(=O)c2ccc(OCCCN3CC=C(c4ccccc4)CC3)cc2O1` [Example 2A, 7-[3-[3,6-dihydro-4-phenyl-1(2H)-pyridinyl)propoxy]-2,3-dihydro-2,2-dimethyl-4H-benzopyran-4-one], in experiment [1] (setting [4]), the pIC50 is over 7.00. Also, the ED50 in experiment [2] was found to be 4.8 mg/kg.
For `CC1(C)CC(=O)c2ccc(OCCCN3CCN(c4ccccc4)CC3)cc2O1` [Example 1, 2,3-Dihydro-2,2-dimethyl-7-(3-(4-phenyl)-1-piperizinyl)propoxy-4H-benzopyran-4-one], the pIC50 in experiment [1] (setting [3]) is 6.52. Further, the 50% effective dose (ED50) in experiment [2] was determined as 5.9 mg/kg.
Consider `c1cnc(N2CCN(CCCCOc3cccc4ncccc34)CC2)nc1` [Example 2S, 5-[4-[4-(2-pyrimidinyl)-1-piperazinyl]butoxy]quinoline], for which the pIC50 in experiment [1] (setting [3]) was 6.74. In addition, the 50% effective dose (ED50) in experiment [2] amounted to 7.7 mg/kg.
Regarding `O=C1COc2cc(OCCCN3CCN(c4ccccc4)CC3)ccc21` [Example 2B, 6-[3-(4-phenyl-1-piperazinyl)propoxy]-3-(2H)-benzofuranone], the negative logarithm of the IC50 (pIC50) in experiment [1] (setting [3]) was 7.00. Also, the ED50 in experiment [2] is 3.7 mg/kg.
For the compound `C1=C(c2ccccc2)CCN(CCCCOc2cccc3[nH]ccc23)C1` [Example 2G, 4-[4-(3,6-dihydro-4-phenyl-1(2H)-pyridinyl)butoxy]-1H-indole], the pIC50 in experiment [1] (setting [4]) was 7.30. In addition, the median effective dose (ED50) in experiment [2] amounted to 1.4 mg/kg.
With `c1cnc(N2CCN(CCCOc3ccc4cccnc4c3)CC2)nc1` [Example 2V, 7-[3-[4-(2-pyrimidinyl)-1-piperazinyl]propoxy]quinoline], in experiment [1] (setting [3]), the pIC50 was 6.05. In addition, in experiment [2], the ED50 amounted to 1 mg/kg.
`C1=C(c2ccccc2)CCN(CCCOc2cccc3cnccc23)C1` [Example 2O, 5-[3-(3,6-dihydro-4-phenyl-1(2H)-pyridinyl)propoxy]isoquinoline] gave a negative logarithm of the IC50 (pIC50) in experiment [1] (setting [4]) of 7.48. Also, in experiment [2], the ED50 worked out at 0.18 mg/kg.
`c1ccc(N2CCN(CCCOc3ccc4[nH]cnc4c3)CC2)cc1` [Example 3, 5-[3-(4-Phenylpiperazinyl)propyloxy]-1H-benzimidazole] showed a negative-log IC50 (pIC50) in experiment [1] (setting [4]) of 6.92. In addition, in experiment [2], the 50% effective dose (ED50) was 4.9 mg/kg.
In experiment [1] (setting [4]), `C1=C(c2ccccc2)CCN(CCCCOc2ccc3ncccc3c2)C1` [Example 2M, 6-[4-(3,6-dihydro-4-phenyl-1(2H)-pyridinyl)butoxy]quinoline] had a pIC50 of 7.77. Further, the ED50 in experiment [2] was found to be 1.1 mg/kg.
`c1ccc(N2CCN(CCCOc3ccc4ccoc4c3)CC2)cc1` [Example 5, 1-[3-[6-Benzofuranyloxy]propyl]-4-phenylpiperazine]: the negative-log IC50 (pIC50) in experiment [1] (setting [3]) was 6.30. The median effective dose (ED50) in experiment [2] stood at 8.8 mg/kg.
Take `c1ccc(N2CCN(CCCOc3ccc4c(c3)OCCC4)CC2)cc1` [Example 2D, 1-[3-[(3,4-dihydro-2H-1-benzopyran-7-yl)oxy]propyl]-4-phenylpiperazine]: in experiment [1] (setting [3]), the pIC50 is 7.15. For the same compound, the ED50 in experiment [2] came to 2.7 mg/kg.
On to `c1ccc(N2CCN(CCCOc3cccc4cnccc34)CC2)cc1` [Example 2Q, 5-[3-(4-phenyl-1-piperazinyl)propoxy]isoquinoline], for which, in experiment [1] (setting [3]), the negative logarithm of the IC50 (pIC50) is 6.69. Besides, in experiment [2], the ED50 turned out to be 0.29 mg/kg.
`c1cnc(N2CCN(CCCOc3cccc4cnccc34)CC2)nc1` [Example 2R, 5-[3-[4-(2-pyrimidinyl)-1-piperazinyl]propoxy]isoquinoline]: the pIC50 in experiment [1] (setting [3]) was 6.02. Moreover, in experiment [2], the ED50 came to 19.5 mg/kg.
For the compound `O=C1Cc2cc(OCCCN3CCN(c4ccccc4)CC3)ccc2N1` [Example 4, 1,3-dihydro-5-[3-(4-phenyl-1-piperazinyl)propoxy]-2H-indole-2-one], the pIC50 in experiment [1] (setting [3]) was 6.80. The ED50 in experiment [2] is 0.4 mg/kg.
In the case of `c1ccc(N2CCN(CCCOc3ccc4cccnc4c3)CC2)nc1` [Example 2T, 7-[3-[4-(2-pyridinyl)-1-piperazinyl]propoxy]quinoline], the pIC50 in experiment [1] (setting [3]) was 6.64. Besides, in experiment [2], the ED50 is 0.17 mg/kg.
With `c1ccc(N2CCN(CCCOc3ccc4cccnc4c3)CC2)cc1` [Example 2U, 7-[3-(4-phenyl-1-piperazinyl)propoxy]quinoline], in experiment [1] (setting [3]), the negative logarithm of the IC50 (pIC50) is 7.30. Further, the ED50 in experiment [2] came out at 0.1 mg/kg.
As for `c1cnc(N2CCN(CCCOc3ccc4cc[nH]c4c3)CC2)nc1` [Example 2J, 6-[3-[4-(2-pyrimidinyl)-1-piperazinyl]propoxy]-1H-indole], in experiment [1] (setting [3]), the pIC50 is 6.70. Further, the 50% effective dose (ED50) in experiment [2] amounted to 3.2 mg/kg.
With `O=C1NCCc2c(OCCCN3CCN(c4ccccn4)CC3)cccc21` [Example 2X], in experiment [1] (setting [3]), the negative-log IC50 (pIC50) was 6.37. Also, the ED50 in experiment [2] was found to be 4.4 mg/kg.
The like results for `c1ccc(N2CCN(CCCOc3cccc4cnccc34)CC2)nc1` [Example 2P, 5-[3-[4-(2-pyridinyl)-1-piperazinyl]propoxy]isoquinoline] were, in that order, 6.19 and 3 mg/kg.
Consider `O=C1COc2ccc(OCCCN3CCN(c4ncccn4)CC3)cc2N1` [Example 2E, 6-[3-[4-(2-pyrimidinyl)-1-piperazinyl]propoxy]-2H-1,4-benzoxazine-3(4H)-one], for which the pIC50 in experiment [1] (setting [3]) is 6.00. Moreover, in experiment [2], the ED50 was 1 mg/kg.
In turn, `O=C1COc2cc(OCCCN3CC=C(c4ccccc4)CC3)ccc21` [Example 2C] showed a negative logarithm of the IC50 (pIC50) in experiment [1] (setting [4]) of over 7.00. Besides, the ED50 in experiment [2] is 3.5 mg/kg.
Consider `c1cnc(N2CCN(CCCCOc3ccc4ncccc4c3)CC2)nc1` [Example 2L, 6-[4-[4-(2-pyrimidinyl)-1-piperazinyl]butoxy]quinoline], for which the pIC50 in experiment [1] (setting [3]) was 7.30. Further, in experiment [2], the ED50 stood at 0.9 mg/kg.
`Oc1nccc2c(OCCCN3CCN(c4ccccn4)CC3)cccc12` [Example 2W, 5-[3-[4-(2-pyridinyl)-1-piperazinyl]propoxy]-1-isoquinolinol]: the pIC50 in experiment [1] (setting [3]) was 6.19. The ED50 in experiment [2] is 6.1 mg/kg.
`C1=C(c2ccccc2)CCN(CCCOc2ccc3cc[nH]c3c2)C1` [Example 2I, 6-[3-(3,6-dihydro-4-phenyl-1(2H)-pyridinyl)propoxy]-1H-indole] gave a negative-log IC50 (pIC50) in experiment [1] (setting [4]) of 7.00. Moreover, the ED50 in experiment [2] was found to be 2.8 mg/kg.
